Reference: the supplement of paper PMC10307832

Experiments:
Assay in all cases: relative viability (nuclei count vs DMSO), 5 days (fraction); higher = more cells survive
MK-2206 + Tozasertib = compound: NC1(c2ccc(-c3nc4ccn5c(=O)[nH]nc5c4cc3-c3ccccc3)cc2)CCC1 [MK-2206] + Cc1cc(Nc2cc(N3CCN(C)CC3)nc(Sc3ccc(NC(=O)C4CC4)cc3)n2)n[nH]1 [Tozasertib] (partner 0.1 µM)
Procedure, shortened: (§1)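 Lung cancer cell lines in 1536-well plates got either a single drug or a fixed anchor-drug dose together with five library-drug doses (not always all listed) in √10 steps, by pin tool, on the day after seeding. Nuclei were counted after 5 days, and relative viability is the treated-to-vehicle ratio of nuclei counts. Values are medians of duplicate plates.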

Pictilisib + Palbociclib = compound: CS(=O)(=O)N1CCN(Cc2cc3nc(-c4cccc5[nH]ncc45)nc(N4CCOCC4)c3s2)CC1 [Pictilisib] + CC(=O)c1c(C)c2cnc(Nc3ccc(N4CCNCC4)cn3)nc2n(C2CCCC2)c1=O [Palbociclib] (partner 0.5 µM)
Procedure, shortened: as §1

Pictilisib + Navitoclax = compound: CS(=O)(=O)N1CCN(Cc2cc3nc(-c4cccc5[nH]ncc45)nc(N4CCOCC4)c3s2)CC1 [Pictilisib] + CC1(C)CCC(c2ccc(Cl)cc2)=C(CN2CCN(c3ccc(C(=O)NS(=O)(=O)c4ccc(N[C@H](CCN5CCOCC5)CSc5ccccc5)c(S(=O)(=O)C(F)(F)F)c4)cc3)CC2)C1 [Navitoclax] (partner 0.5 µM)
Procedure, shortened: as §1

MK-2206 + Navitoclax = compound: NC1(c2ccc(-c3nc4ccn5c(=O)[nH]nc5c4cc3-c3ccccc3)cc2)CCC1 [MK-2206] + CC1(C)CCC(c2ccc(Cl)cc2)=C(CN2CCN(c3ccc(C(=O)NS(=O)(=O)c4ccc(N[C@H](CCN5CCOCC5)CSc5ccccc5)c(S(=O)(=O)C(F)(F)F)c4)cc3)CC2)C1 [Navitoclax] (partner 0.5 µM)
Procedure, shortened: as §1

Cell Line	relative viability (MK-2206 + Tozasertib; first compound 0.01 µM)	relative viability (MK-2206 + Tozasertib; first compound 0.03162 µM)	relative viability (MK-2206 + Tozasertib; first compound 0.3162 µM)	relative viability (MK-2206 + Tozasertib; first compound 1 µM)	relative viability (Pictilisib + Palbociclib; first compound 0.02 µM)	relative viability (Pictilisib + Palbociclib; first compound 0.06325 µM)	relative viability (Pictilisib + Palbociclib; first compound 0.6325 µM)	relative viability (Pictilisib + Palbociclib; first compound 2 µM)	relative viability (Pictilisib + Navitoclax; first compound 0.02 µM)	relative viability (Pictilisib + Navitoclax; first compound 0.06325 µM)	relative viability (Pictilisib + Navitoclax; first compound 0.6325 µM)	relative viability (Pictilisib + Navitoclax; first compound 2 µM)	relative viability (MK-2206 + Navitoclax; first compound 0.01 µM)	relative viability (MK-2206 + Navitoclax; first compound 0.03162 µM)	relative viability (MK-2206 + Navitoclax; first compound 0.3162 µM)	relative viability (MK-2206 + Navitoclax; first compound 1 µM)
SW 900	0.561	0.531	0.569	0.698	0.543	0.58	0.358	0.252								
PC-3 [JPC-3]	0.874	0.83	0.873	0.899	0.539	0.494	0.534	0.456	0.758	0.749	0.803	0.496	0.817	0.849	0.83	0.825
NCI-H1703									1.38	0.805	0.305	0.204	1.15	0.961	0.621	0.776
EPLC-272H	0.292	0.378	0.344	0.246	0.348	0.298	0.317	0.243	1.32	1.05	1.01	0.733	0.915	1.18		1.08
NCI-H1792					0.62	0.693	0.512	0.34	0.641	0.728	0.383	0.226	0.603	0.706	0.655	0.578
NCI-H2085	0.781	0.793	0.786	0.716	0.465	0.462	0.362	0.267	1.08	1.17	0.864	0.416	1.09	1.19	0.902	0.825
LK-2	0.174	0.165	0.186	0.168	0.588	0.673	0.354	0.259	0.879	0.585	0.63	0.321	0.837	0.938	0.684	0.61
NCI-H1395	0.825	0.693	0.683	0.631	0.657	0.696	0.515	0.412	1.17	1.27	0.99	0.6	1.17	1.63	1.12	0.927
ABC-1	0.145	0.148	0.167	0.163	0.683	0.583	0.469	0.416								
RERF-LC-KJ	0.538	0.529	0.461	0.364	1.02	1.15	0.815	0.711	0.93	0.728	0.91	0.5	0.836	1.28	0.708	0.69
LU99A	0.302	0.281	0.271	0.21	0.426	0.288	0.316	0.177	0.818	0.638	0.574	0.361	0.862	0.77	0.72	0.822
NCI-H650	0.703	0.76	0.751	0.772	0.323	0.308	0.271	0.265								
NCI-H2347	0.521	0.631	0.561	0.496	0.448	0.398	0.433	0.363	0.865	0.874	0.75	0.528	0.752	0.883	0.684	0.883
HARA	0.0977	0.106	0.267	0.094	0.305	0.269	0.187	0.161	1.2	1.13	1.09	1.08	1.08	1.11	1.24	1.17
NCI-H2228	0.388	0.235	0.221	0.11	0.64	1.04	0.492	0.282	0.948	0.563	0.59	0.181	1.12	0.724	0.678	0.585
EKVX	0.405	0.395	0.344	0.329	0.378	0.348	0.348	0.184	0.971	0.958	0.675	0.377	0.859	1.05	0.934	0.65
HCC-827	0.441	0.438	0.366	0.412	0.517	0.415	0.234	0.188	1.11	0.978	1.02	0.865	1.06	1.12	1.04	1.01
NCI-H1755	0.647	0.549	0.582	0.513	0.447	0.417	0.458	0.323	1.01	1	0.889	0.571	1.02	0.985	0.829	0.895
NCI-H661	0.377	0.354	0.373	0.364	0.446	0.384	0.347	0.299								
NCI-H1944	0.249	0.244	0.251	0.24	0.322	0.235	0.226	0.183	1.04	0.99	0.974	0.394	1.07	1.03	1.02	0.992
NCI-H23	0.43	0.359	0.364	0.281	0.505	0.439	0.351	0.186	0.852	0.899	0.665	0.372	0.956	0.899	0.947	0.811
NCI-H1648	0.508	0.689	0.657	0.504	0.248	0.236	0.256	0.216								
NCI-H522	0.593	0.518	0.62	0.513	1.07	0.785	0.833	0.692								
HCC-366	0.159	0.0953	0.165	0.0632	0.434	0.305	0.133	0.0473	1.04	1.06	0.908	0.195	1.04	1.11	0.736	1.04

Cell Line	relative viability (MK-2206 + Tozasertib; first compound 0.01 µM)	relative viability (MK-2206 + Tozasertib; first compound 0.03162 µM)	relative viability (MK-2206 + Tozasertib; first compound 0.3162 µM)	relative viability (MK-2206 + Tozasertib; first compound 1 µM)	relative viability (Pictilisib + Palbociclib; first compound 0.02 µM)	relative viability (Pictilisib + Palbociclib; first compound 0.06325 µM)	relative viability (Pictilisib + Palbociclib; first compound 0.6325 µM)	relative viability (Pictilisib + Palbociclib; first compound 2 µM)	relative viability (Pictilisib + Navitoclax; first compound 0.02 µM)	relative viability (Pictilisib + Navitoclax; first compound 0.06325 µM)	relative viability (Pictilisib + Navitoclax; first compound 0.6325 µM)	relative viability (Pictilisib + Navitoclax; first compound 2 µM)	relative viability (MK-2206 + Navitoclax; first compound 0.01 µM)	relative viability (MK-2206 + Navitoclax; first compound 0.03162 µM)	relative viability (MK-2206 + Navitoclax; first compound 0.3162 µM)	relative viability (MK-2206 + Navitoclax; first compound 1 µM)
EBC-1									0.38	0.412	0.164	0.126	0.455	0.385	0.23	0.131
ChaGo-K-1	0.236	0.268	0.2	0.228	0.942	0.954	0.844	0.72	1.19	1.32	0.987	0.826	1.3	1.17	0.816	0.454
LCLC-97TM1	0.26	0.382	0.194	0.223	0.206	0.269	0.125	0.0838	0.288	0.768	0.221	0.107	0.522	0.499	0.404	0.361
NCI-H1299									1.09	1.05	1.1	1.13	1.09	1.05	1.06	1.05
EMC-BAC-2	0.333	0.298	0.271	0.261	0.502	0.498	0.401	0.337	1.1	1.14	1.07	0.649	1.13	1.14	1.15	1.08
NCI-H1623	0.458	0.394	0.456	0.44												
NCI-H441	0.68	0.573	0.498	0.462	0.216	0.192	0.152	0.148	0.856	0.64	0.505	0.413	0.77	0.639	0.6	0.505
LCLC-103H	0.495	0.609	0.516	0.477	0.525	0.485	0.44	0.351								
HOP-62	0.381	0.39	0.391	0.322	0.526	0.423	0.399	0.287	0.955	1.1	1.06	1.01	0.909	1.24	1.02	1.1
NCI-H1793	0.349	0.345	0.302	0.284	0.25	0.234	0.199	0.183	0.397	0.388	0.308	0.171	0.521	0.475	0.352	0.463
NCI-H1355	0.555	0.587	0.533	0.47	0.405	0.356	0.293	0.217	0.941	0.902	0.828	0.501	0.961	0.828	0.961	0.819
COR-L23	0.186	0.243	0.234	0.17	0.335	0.349	0.273	0.208	1.1	1.15	0.949	0.561	0.969	1.14	1.07	0.877
HCC-44	0.993	1.1	1.03	0.98	1.02	1.01	0.955	0.977	0.974	0.848	0.866	0.622	0.868	0.962	0.868	0.818
A-427	0.218	0.197	0.191	0.207	0.512	0.511	0.504	0.508	0.952	0.785	1.04	0.809	0.937	0.877	0.849	0.902
IA-LM									0.777	0.898	0.766	0.309	0.724	0.835	0.801	0.669
NCI-H520	0.405	0.543	0.254	0.367	0.217	0.234	0.144	0.125	1.17	1.24	0.599	0.134	1.11	1.09	0.701	0.489
LXF-289	0.209	0.201	0.238	0.172	0.584	0.588	0.621	0.398	0.97	0.935	0.992	0.827	0.914	1.01	1.01	0.972
NCI-H2087	0.26	0.242	0.223	0.259	0.199	0.255	0.19	0.162	1.04	0.945	0.943	0.674	1.14	0.905	0.906	0.912
NCI-H596	0.912	1.01	0.829	0.765					0.736	0.835	0.645	0.206	0.948	1.06	0.756	0.669
A549									1.32	1.25	0.919	0.401	1.19	1.08	1.11	0.991
Calu-6									0.911	0.855	0.656	0.569	0.937	0.9	0.861	0.828
NCI-H358	0.0987	0.112	0.097	0.0994	0.116	0.165	0.121	0.115								
NCI-H2342	0.608	0.535	0.452	0.402	0.515	0.507	0.444	0.403								
